Consider 9 compounds from patent US11702404B2, “GLP-1R modulating compounds” (priority 2019, dated 2023).

One series has as its target GLP-1R (Homo sapiens, UniProt P43220). In words: GLP-1R activation: cAMP increase in CHO cells stably expressing GLP-1R. The class given is cell-based. The note with it: cAMP increase, CHO cells stably expressing GLP-1R, 10 point dose response, 30 minutes incubation; read-out: EC50.
The nature of series [1]: Microsomal stability, human liver microsomes (predicted hepatic clearance). The settings on record: predicted from in vitro microsomal stability data.

Sequence of GLP-1R (P43220 24-463): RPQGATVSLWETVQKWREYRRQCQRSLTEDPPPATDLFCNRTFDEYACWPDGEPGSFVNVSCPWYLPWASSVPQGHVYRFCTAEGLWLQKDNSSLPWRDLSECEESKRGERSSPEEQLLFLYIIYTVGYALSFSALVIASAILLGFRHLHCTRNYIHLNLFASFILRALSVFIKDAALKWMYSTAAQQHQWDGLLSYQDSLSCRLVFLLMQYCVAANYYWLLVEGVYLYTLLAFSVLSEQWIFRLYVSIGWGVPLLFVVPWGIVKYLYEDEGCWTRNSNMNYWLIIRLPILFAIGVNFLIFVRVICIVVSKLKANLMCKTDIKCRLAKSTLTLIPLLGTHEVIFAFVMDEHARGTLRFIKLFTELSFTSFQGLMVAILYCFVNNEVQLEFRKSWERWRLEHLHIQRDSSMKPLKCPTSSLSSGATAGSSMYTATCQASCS

For the compound `CC1(C)COC1Cn1c(Cc2ccc(-c3cccc(OCc4ccc(C#N)cc4F)n3)cc2F)nc2ccc(C(=O)O)cc21` (stereo not drawn) [Example 264, 2-(4-(6-((4-cyano-2-fluorobenzyl)oxy)pyridin-2-yl)-2-fluorobenzyl)-1-((3,3-dimethyloxetan-2-yl)methyl)-1H-benzo[d]imidazole-6-carboxylic acid], the EC50 at GLP-1R was determined as 26.2 nM. Also, the “Predicted Hepatic Clearance (Pred. Cl.)” value in series [1] is 0.24 L/h/kg.

For `COCCn1c(Cc2ccc(-c3cccc(OCc4cccc5c4oc4ccccc45)n3)cc2F)nc2ccc(C(=O)O)cc21` [Example 265, 2-(4-(6-(dibenzo[b,d]furan-4-ylmethoxy)pyridin-2-yl)-2-fluorobenzyl)-1-(2-methoxyethyl)-1H-benzo[d]imidazole-6-carboxylic acid], on GLP-1R, the EC50 worked out at 2.08 nM. For the same compound, in series [1], the “Predicted Hepatic Clearance (Pred. Cl.)” value is given as 0.34 L/h/kg.

As for `COCCn1c(Cc2ccc(-c3cccc(OCc4ccc(C5(C#N)CC5)cc4)n3)cc2F)nc2ccc(C(=O)O)cc21` [Example 266, 2-(4-(6-((4-(1-cyanocyclopropyl)benzyl)oxy)pyridin-2-yl)-2-fluorobenzyl)-1-(2-methoxyethyl)-1H-benzo[d]imidazole-6-carboxylic acid], the half-maximal effective concentration (EC50) on GLP-1R was 51.4 nM. Also, the “Predicted Hepatic Clearance (Pred. Cl.)” value in series [1] was 0.37 L/h/kg.

Take `COCCn1c(Cc2ccc(-c3cccc(OCc4ccc(Cl)cc4OCC(F)(F)F)n3)cc2F)nc2ccc(C(=O)O)cc21` [Example 267, 2-(4-(6-((4-chloro-2-(2,2,2-trifluoroethoxy)benzyl)oxy)pyridin-2-yl)-2-fluorobenzyl)-1-(2-methoxyethyl)-1H-benzo[d]imidazole-6-carboxylic acid]: the EC50 at GLP-1R turned out to be 172 nM. Besides, in series [1], the “Predicted Hepatic Clearance (Pred. Cl.)” value is recorded as 0.275 L/h/kg.

For the compound `N#CCC1(Cn2c(Cc3cc(F)c(-c4ccnc(OCc5ccc(C#N)cc5F)n4)cc3F)nc3c(F)cc(C(=O)O)cc32)CC1` [Example 268, 2-(4-(2-((4-cyano-2-fluorobenzyl)oxy)pyrimidin-4-yl)-2,5-difluorobenzyl)-1-((1-(cyanomethyl)cyclopropyl)methyl)-4-fluoro-1H-benzo[d]imidazole-6-carboxylic acid], the EC50 at GLP-1R was 15.7 nM. For the same compound, in series [1], the “Predicted Hepatic Clearance (Pred. Cl.)” value is listed as 0.22 L/h/kg.

On to `N#Cc1ccc(COc2cccc(-c3cc(F)c(Cc4nc5ccc(C(=O)O)cc5n4Cc4ncccn4)cc3F)n2)c(F)c1` [Example 269, 2-(4-(6-((4-cyano-2-fluorobenzyl)oxy)pyridin-2-yl)-2,5-difluorobenzyl)-1-(pyrimidin-2-ylmethyl)-1H-benzo[d]imidazole-6-carboxylic acid], for which the EC50 on GLP-1R was 51.7 nM. Moreover, the “Predicted Hepatic Clearance (Pred. Cl.)” value in series [1] is 0.35 L/h/kg.

Turning to `N#Cc1ccc(COc2cccc(-c3cc(F)c(Cc4nc5ccc(C(=O)O)cc5n4CC4(F)COC4)cc3F)n2)c(F)c1` [Example 270, 2-(4-(6-((4-cyano-2-fluorobenzyl)oxy)pyridin-2-yl)-2,5-difluorobenzyl)-1-((3-fluorooxetan-3-yl)methyl)-1H-benzo[d]imidazole-6-carboxylic acid], the EC50 at GLP-1R was 1.82 nM. Also, the “Predicted Hepatic Clearance (Pred. Cl.)” value in series [1] is reported as 0.27 L/h/kg.

In the case of `N#CCC1(Cn2c(Cc3cc(F)c(-c4cccc(OCc5ccc(C#N)cc5F)n4)cc3F)nc3ccc(C(=O)O)nc32)CC1` [Example 273, 2-(4-(6-((4-cyano-2-fluorobenzyl)oxy)pyridin-2-yl)-2,5-difluorobenzyl)-3-((1-(cyanomethyl)cyclopropyl)methyl)-3H-imidazo[4,5-b]pyridine-5-carboxylic acid], on GLP-1R, the EC50 worked out at 0.52 nM. Also, the “Predicted Hepatic Clearance (Pred. Cl.)” value in series [1] is 0.42 L/h/kg.

Consider `N#Cc1ccc(COc2cccc(-c3cc(F)c(Cc4nc5ccc(C(=O)O)cc5n4CC4(n5cncn5)CC4)cc3F)n2)c(F)c1` [Example 274, 1-((1-(1H-1,2,4-triazol-1-yl)cyclopropyl)methyl)-2-(4-(6-((4-cyano-2-fluorobenzyl)oxy)pyridin-2-yl)-2,5-difluorobenzyl)-1H-benzo[d]imidazole-6-carboxylic acid], for which the EC50 at GLP-1R is 0.23 nM. In addition, the “Predicted Hepatic Clearance (Pred. Cl.)” value in series [1] was 0.48 L/h/kg.
